For one assay, the target named is T1, mu opioid receptor (MOR) (Homo sapiens, UniProt P35372).
T1 construct: host or cells: U2OS (Discover X OPRMu1-U2OS, PathHunter)
The assay can be described thus: OPRMu1 Discover X β-arrestin Assay, antagonist mode (U2OS cells, DAMGO EC80 challenge). Format: cell-based. From the text: OPRMu1 Discover X—β-arrestin Assay—Antagonist Mode. […] This assay evaluates the OPRMu1 activation in membrane recruitment of β-arrestin. In addition, the assay evaluates GPCR-β-arrestin proximity using low affinity fragment complementation of beta-galactosidase (beta-gal). The assay employs U20S cells, which express OPRMu1 fused to the complementary beta-gal fragment (enzyme acceptor). As designed, compounds that act as antagonists will prevent receptor activation resulting in reduced well luminescence. Compounds were tested in quadruplicate using a 10-point, 1:3 dilution series starting at a nominal concentration of 10 micromolar.
The Discover X OPRMu1-U20S cell line was cultured in 150 mm dishes at 37° C., 5% CO2 and 95% relative humidity (RH).
On Day 1 of the assay, 5000 cells in 20 μL of assay buffer (Discover X's Cell Plating Reagent 5) were seeded into each well of a 384 Corning 3570 standard white plate, and incubated 16-24 hours at 37° C., 5% CO2 and 95% RH.
On Day 2, 100 nL of test compound in DMSO were added to the appropriate wells and the plates were then incubated for 30 min at 37° C. 5% CO2 and 95% RH. Next, 2.2 μL of DAMGO OPRMu1 agonist (commercially available) or DMSO in assay media. (The EC80 Challenge consists of 1.8 μL of 3.7 μM DAMGO, 0.4 μL of Assay Buffer, with a final assay concentration of 303 nM). After incubation for 3 hours at 37° C. 5% CO2, and 95% RH, 10 μL of Path Hunter Detection Mix was added to each well, and the plate was then incubated at room temperature in the dark for 1 hour. Well luminescence was measured on Perkin Elmer's Envision.
(§1) The Percent Inhibition was calculated from the median ratio as follows:
• DMEM Medium, (Invitrogen 11965) • F12 Medium, (Invitrogen 11765) • Heat Inactivated Fetal Bovine Serum, (Invitrogen 10082147) • Non Essential Amino Acids 100× (Invitrogen 11140-050) • HEPES (pH 7.3) 1M, (Invitrogen 15630-080) • Sodium Pyruvate 100× (Invitrogen 11360-070) • Penicillin Streptomycin, (Invitrogen 15640) • Trypsin 0.25% EDTA (Invitrogen 25200056) • DPBS without Calcium/Magnesium (Invitrogen 14190-136) • DMSO Dry (Sigma D2650) • DAMGO OPRMu1 Agonist MW513.19 (Sigma E7384-5MG) • B-Funaltrexamine Hydrochloride OPRM1 Antagonist MW (SIGMA 0003-2MG) • PathHunter Cell Plating 5 Reagent (Discover X 93-0563R5A) • Corning 3750 Standard 384 well white plate with lid.
PathHunter Detection Mix (DiscoverX 93-0001): 1 part Galacton Star/5 parts Emerald II/19 parts PH Cell Assay Buffer.

In assay [1] the target is T2, kappa opioid receptor (KOR) (Homo sapiens, UniProt P41145).
T2 construct: host or cells: U2OS (Tango OPRK1-bla U2OS)
Put plainly: OPRKappa 1 Tango B-Arrestin Assay, antagonist mode (Tango OPRK1-bla U2OS cells, U50488 EC80 challenge). Format: cell-based. The following applies: for Selectivity (MOR/KOR): Kappa selectivity, MOR IC50 / KOR IC50; for IC50: antagonist mode, Tango OPRK1-bla U2OS cells, 6 nM U50488 challenge.
Source text: OPRKappa 1 Tango B-Arrestin Assay Protocol-Antagonist Mode. […] The assay uses Tango OPRK1-bla U2OS cells which express OPRK1 linked to a GAL4-VP16 transcription factor via a TEV protease site. The cells also express a β-arrestin/TEV protease fusion protein and a β-lactamase (BLA) reporter gene under the control of a UAS response element. Stimulation of the OPRK1 receptor by agonist causes migration of the β-arrestin fusion protein to the GPCR, and through proteolysis liberates GAL4-VP16 from the receptor. The liberated VP16-GAL4 migrates to the nucleus, where it induces transcription of the BLA gene. BLA expression is monitored by measuring fluorescence resonance energy transfer (FRET) of a cleavable, fluorogenic, cell-permeable BLA substrate. As designed, test compounds that are OPRK1 antagonists inhibit agonist activation and migration of the fusion protein, thus preventing proteolysis of GAL4-VP16 and BLA transcription, leading to no increase in well FRET. Compounds were tested in quadruplicate using a 10-point, 1:3 dilution series starting at a nominal concentration of 10 micromolar.
The Tango OPRK1-U20S Dividing cell line was routinely cultured in 150 mm dishes at 37C, 5% CO2 and 95% relative humidity (RH).
On Day 1 of the assay, 16,000 cells in 10 μL of assay media (DMEM-Glutamax—with Sodium Pyruvate, 10% fetal bovine serum stripped with charcoal-dextran (CDS), 25 mM HEPES, 0.1 mM non-essential amino acids, antibiotic mix (penicillin streptomycin)) were seeded into each well of a 384 Greiner 788092 black low profile, clear bottom, low volume plate, and incubated 16-24 hours at 37° C., 5% CO2 and 95% (RH).
On Day 2, 50 nL of test compound in DMSO was added to the appropriate wells and plates were incubated for 30 min at 37° C. 5% CO2 and 95% (RH). Next was added 0.65 μL of commercially available U50488 OPRK1 agonist or DMSO in assay media: this EC80 Challenge consists of 0.6 μL of 111 nM U50488 to yield a final assay concentration of 6 nM). After incubation for 4 hours at 37° C., 5% CO2 and 95% (RH), 2.5 μL of LiveBLazer™FRET B/G (CCF4-AM) Mix (Soln.'s A,B,C,&D) was added to each well and incubated at room temperature in the dark for 2 hours. Well fluorescence was measured on Perkin Elmer's Envision using an Excitation filter 409 nm, Emission filters at 460 nm and […], bottom read.
as §1
• Tango™OPRK1-bla U20S Cells (Invitrogen K1576) • McCoy's 5A Medium, (Invitrogen 16600-082) • Dialyzed Fetal Bovine Serum, (Invitrogen 26400-036) • Non Essential Amino Acids 100× (Invitrogen part 11140-050) • HEPES (pH 7.3) 1M, (Invitrogen 15630-080) • Sodium Pyruvate 100× (Invitrogen 11360-070) • Penicillin Streptomycin, (Invitrogen 15640) • Trypsin 0.25% EDTA (Invitrogen 25200056) • DPBS without Calcium/Magnesium (Invitrogen 14190-136) • DMEM, High Glucose, GlutaMAX (Invitrogen 10569-010) • Fetal Bovine Serum, Charcoal Stripped (Invitrogen 12676-011) • DMSO Dry (Sigma D2650) • U50488 OPRK1 Agonist MW410.29 (Tocris 67198-19-0) • GNTI dihydrochloride OPRK1 Antagonist MW571.5 (Tocris 1282) • Nor-Binaltorphimine dihydrochloridc MW770.75 (Tocris 0347)
LiveBLAzere™-FRET/BG Loading Mix: (Invitrogen K1030 (5 mg)), composed of Solutions A, B, C, and D: • Solution A (6 μL): LiveBLAzer™-FRET/BG Substrate (CCF4-AM) • Solution B (60 μL) • Solution C (904 μL) • Solution C (must add 250 μl of 1N NaOH to 45 mL of Solution C prior to use) • Solution D (30 μL) [Probinicid] (Sigma P8161) make 200 mM stock in NaOH—H2O.

T2 sequence (P41145 whole entry): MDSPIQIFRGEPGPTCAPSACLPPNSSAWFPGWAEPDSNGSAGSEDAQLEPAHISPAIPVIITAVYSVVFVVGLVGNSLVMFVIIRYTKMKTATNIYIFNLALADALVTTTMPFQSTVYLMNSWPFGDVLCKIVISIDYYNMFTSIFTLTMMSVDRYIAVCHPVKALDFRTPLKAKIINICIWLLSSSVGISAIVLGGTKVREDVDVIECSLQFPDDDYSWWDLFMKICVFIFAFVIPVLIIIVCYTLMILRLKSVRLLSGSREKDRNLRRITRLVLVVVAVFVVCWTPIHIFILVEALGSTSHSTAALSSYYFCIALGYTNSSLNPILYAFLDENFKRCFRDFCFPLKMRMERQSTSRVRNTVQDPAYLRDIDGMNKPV
T1 sequence (P35372 whole entry): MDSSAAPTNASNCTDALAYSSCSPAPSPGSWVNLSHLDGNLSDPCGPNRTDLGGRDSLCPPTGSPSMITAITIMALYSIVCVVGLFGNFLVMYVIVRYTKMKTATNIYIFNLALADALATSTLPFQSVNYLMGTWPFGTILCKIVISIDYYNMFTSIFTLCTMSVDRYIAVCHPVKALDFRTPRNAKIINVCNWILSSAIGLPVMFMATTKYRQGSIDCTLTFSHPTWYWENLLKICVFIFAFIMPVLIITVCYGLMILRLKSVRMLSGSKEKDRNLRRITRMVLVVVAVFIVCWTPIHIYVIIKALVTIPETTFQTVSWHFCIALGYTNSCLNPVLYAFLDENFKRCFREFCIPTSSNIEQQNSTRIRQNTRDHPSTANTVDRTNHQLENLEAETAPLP

The IC50 is the point on the concentration scale where inhibition reaches its midpoint. A higher IC50 goes with weaker potency in that assay. `CCc1cc(F)c2nc(N3CCN(C4CCOCC4)C[C@@H]3C)c(-c3nc(C)no3)c(C)c2c1` (single isomer, unassigned) [Compound 28]: the IC50 against mu opioid receptor (MOR) was > 1 µM. Also, in assay [1], the “Selectivity (MOR/KOR)” value is given as “++++ (more than 1000-fold selectivity over MOR)” and the IC50 lay within 0.001 to 0.01 µM.
Regarding `CCc1cc(F)c2nc(N3CC[C@H](NC4CCOCC4)[C@H](F)C3)c(-c3cc(C(F)(F)F)n(C)n3)c(C)c2c1` (stereo in doubt) [Compound 83], the IC50 against mu opioid receptor (MOR) was > 1 µM. For the same molecule, in assay [1], the “Selectivity (MOR/KOR)” value is on record as “+++ (between 100- to 1000-fold selective)” and the IC50 was ≥ 0.1 µM.
For the molecule `CCc1cc(F)c2nc(N3CC[C@@H]4[C@@H](CCN4C[C@@H]4CCOC4)C3)c(-c3ccn(C)n3)c(C)c2c1` (stereo in doubt) [Compound 127], on mu opioid receptor (MOR), the IC50 is > 1 µM. Further, in assay [1], the “Selectivity (MOR/KOR)” value was “+++ (between 100- to 1000-fold selective)” and the IC50 is ≥ 0.1 µM.
With `CCc1cc(F)c2nc(N3CC[C@H]4[C@H](CCN4C[C@@H]4CCOC4)C3)c(-c3ccn(C)n3)c(C)c2c1` (stereo in doubt) [Compound 129], the IC50 on mu opioid receptor (MOR) was > 1 µM. Also, in assay [1], the “Selectivity (MOR/KOR)” value is “++ (between 10- and 100-fold selectivity)”; the IC50 is 0.01 to 0.1 µM.
Turning to `CCc1cc(F)c2nc(N3CCN(C(=O)[C@H](C)N4CC[C@@H](F)C4)C[C@H]3C)c(-c3nc(C)no3)c(C)c2c1` (stereo in doubt) [Compound 151], the IC50 on mu opioid receptor (MOR) is > 1 µM. Also, in assay [1], the “Selectivity (MOR/KOR)” value is on record as “+++ (between 100- to 1000-fold selective)” and the IC50 lay within 0.001 to 0.01 µM.
For the molecule `CCc1cc(-c2ccnn2C)c2nc(N3CC[C@H](NC4CCOCC4)[C@H](F)C3)c(-c3ccn(C)n3)c(C)c2c1` [Compound 1, (3R,4S)-1-(6-ethyl-4-methyl-3-(1-methyl-1H-pyrazol-3-yl)-8-(1-methyl-1H-pyrazol-5-yl)quinolin-2-yl)-3-fluoro-N-(tetrahydro-2H-pyran-4-yl)piperidin-4-amine], the IC50 at mu opioid receptor (MOR) is > 1 µM; in assay [1] it was 0.001 to 0.01 µM. The “Selectivity (MOR/KOR)” value in assay [1] is reported as “+++ (between 100- to 1000-fold selective)”.
With `CCc1cc(F)c2nc(N3CCN(CC4CCOCC4)C[C@H]3C)c(-c3ccn(C)n3)c(C)c2c1` [Compound 2, (R)-6-ethyl-8-fluoro-4-methyl-3-(1-methyl-1H-pyrazol-3-yl)-2-(2-methyl-4-((tetrahydro-2H-pyran-4-yl)methyl)piperazin-1-yl)quinoline], at mu opioid receptor (MOR), the IC50 was > 1 µM. Besides, in assay [1], the “Selectivity (MOR/KOR)” value is “+++ (between 100- to 1000-fold selective)” and the IC50 was 0.001 to 0.01 µM.
Taken in the same sequence, the figures for `CCc1cc(F)c2nc(N3CCC(N[C@H]4CCOC[C@@H]4F)CC3)c(-c3cc(C)n(C)n3)c(C)c2c1` [Compound 3, 1-(3-(1,5-dimethyl-1H-pyrazol-3-yl)-6-ethyl-8-fluoro-4-methylquinolin-2-yl)-N-((3R,4S)-3-fluorotetrahydro-2H-pyran-4-yl)piperidin-4-amine] were 0.1 to 1 µM, “+++ (between 100- to 1000-fold selective)” and 0.001 to 0.01 µM.
In the case of `CCc1cc(F)c2nc(N3CCC(N[C@@H]4CCOC[C@H]4F)CC3)c(-c3cc(C)n(C)n3)c(C)c2c1` [Compound 4, 1-(3-(1,5-dimethyl-1H-pyrazol-3-yl)-6-ethyl-8-fluoro-4-methylquinolin-2-yl)-N-((3S,4R)-3-fluorotetrahydro-2H-pyran-4-yl)piperidin-4-amine], the IC50 at mu opioid receptor (MOR) was 0.1 to 1 µM. In assay [1], the “Selectivity (MOR/KOR)” value is “++ (between 10- and 100-fold selectivity)”; the IC50 fell in the range of 0.01 to 0.1 µM.
Take `CCc1cc(F)c2nc(N3CCC(N[C@H]4CCOC[C@H]4F)CC3)c(-c3cc(C)n(C)n3)c(C)c2c1` [Compound 5, 1-(3-(1,5-dimethyl-1H-pyrazol-3-yl)-6-ethyl-8-fluoro-4-methylquinolin-2-yl)-N-((3S,4S)-3-fluorotetrahydro-2H-pyran-4-yl)piperidin-4-amine]: the IC50 on mu opioid receptor (MOR) was in the range of 0.1 to 1 µM. Moreover, in assay [1], the “Selectivity (MOR/KOR)” value is on record as “+++ (between 100- to 1000-fold selective)” and the IC50 lay in the range of 0.001 to 0.01 µM.
Taken in the same sequence, the figures for `CCc1cc(-c2ccnn2C)c2nc(N3CCC(N[C@H]4CCOC[C@@H]4F)CC3)c(-c3ccn(C)n3)c(C)c2c1` [Compound 9, 1-(6-ethyl-4-methyl-3-(1-methyl-1H-pyrazol-3-yl)-8-(1-methyl-1H-pyrazol-5-yl)quinolin-2-yl)-N-((3R,4S)-3-fluorotetrahydro-2H-pyran-4-yl)piperidin-4-amine] were 0.1 to 1 µM, “+++ (between 100- to 1000-fold selective)” and < 0.001 µM.
Turning to `CCN/C(=N/C#N)N1CCN(c2nc3c(F)cc(CC)cc3c(C)c2-c2ccn(C)n2)[C@H](C)C1` [Compound 10, (R,E)-N′-cyano-N-ethyl-4-(6-ethyl-8-fluoro-4-methyl-3-(1-methyl-1H-pyrazol-3-yl)quinolin-2-yl)-3-methylpiperazine-1-carboximidamide], at mu opioid receptor (MOR), the IC50 was > 1 µM. In assay [1], the “Selectivity (MOR/KOR)” value was “++ (between 10- and 100-fold selectivity)”; the IC50 is ≥ 0.1 µM.

The record behind these values is US20260115185A1, “QUINOLINE DERIVATIVES WHICH ACT AS KAPPA-OPIOID RECEPTOR ANTAGONISTS” (The Scripps Research Institute, priority 2023, published 2026).
